Laboratory results taken from ChEMBL document CHEMBL1201862, “PubChem BioAssay data set” (2004).
Active and inactive are the calls of the source.

Legend:
[1] = reduced cellular PGC1a acetyl-lysine signal – cell-based, cherry-picked samples, dose response (AID 720514); format: functional;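 also: potency may reflect raised or lowered acetylation signal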
[2] = molecular target: T1, Trace amine-associated receptor 1 (Homo sapiens, UniProt Q96RJ0); experiment: Counterscreen for agonists of the human trace amine associated receptor 1 (hTAAR1): Fluorescence-based cell-based high throughput dose response assay to identify hTAAR1 agonist that also desensitize TAAR1 receptor response.; format: functional
T1 sequence (Q96RJ0 whole entry): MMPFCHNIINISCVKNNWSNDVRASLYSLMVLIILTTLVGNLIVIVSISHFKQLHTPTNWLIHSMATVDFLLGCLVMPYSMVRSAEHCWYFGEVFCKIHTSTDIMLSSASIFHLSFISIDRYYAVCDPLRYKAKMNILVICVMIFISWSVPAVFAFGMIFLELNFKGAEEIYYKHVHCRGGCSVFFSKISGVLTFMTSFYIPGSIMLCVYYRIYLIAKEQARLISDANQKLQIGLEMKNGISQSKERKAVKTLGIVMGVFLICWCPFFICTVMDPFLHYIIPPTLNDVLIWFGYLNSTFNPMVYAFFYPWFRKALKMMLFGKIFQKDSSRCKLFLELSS

cells [3] = format: functional, cell-based
[4] = molecular target: T1, Trace amine-associated receptor 1; experiment: Fluorescence-based cell-based high throughput dose response assay to identify agonists of the human trace amine associated receptor 1 (TAAR1).; format: functional
cells [5] = format: functional, cell-based; remark: listed apart in the source
fMet-Leu-Phe receptor = molecular target: T2, fMet-Leu-Phe receptor (Homo sapiens, UniProt P21462); experiment: formyl peptide receptor binders – dose response (AID 519); format: functional
T2 sequence (P21462 whole entry): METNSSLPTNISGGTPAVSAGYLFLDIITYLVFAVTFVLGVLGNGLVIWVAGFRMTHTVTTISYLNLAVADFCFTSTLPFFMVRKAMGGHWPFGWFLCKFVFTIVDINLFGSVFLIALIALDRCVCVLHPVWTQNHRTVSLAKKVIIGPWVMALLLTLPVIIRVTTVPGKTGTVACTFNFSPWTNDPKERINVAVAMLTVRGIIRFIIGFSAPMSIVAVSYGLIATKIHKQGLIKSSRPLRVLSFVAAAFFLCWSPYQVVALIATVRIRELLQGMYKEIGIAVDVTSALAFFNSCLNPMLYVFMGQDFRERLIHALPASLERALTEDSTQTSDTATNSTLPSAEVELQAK

[6] = A Cell Based Secondary Assay To Explore Cytotoxicity of Compounds that Sensitize Mycobacterium Tuberculosis to Beta-Lactam Antibiotics.; format: functional
[7] = IC50 of Artemis nuclease activity blockers – biochemical, fluorescence intensity, dose response (AID 720701); format: functional;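 also: Artemis endonuclease enzyme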
HeLa = experiment: viability loss in HeLa cells – cell-based, ATP luminescence, cherry-pick samples, cytotoxicity control, dose response (AID 687004); format: functional; details: Homo sapiens
[8] = molecular target: Mitogen-activated protein kinase 10 (Homo sapiens, UniProt P53779); experiment: Dose response biochemical screening assay for inhibitors of c-Jun N-Terminal Kinase 3 (JNK3). [Related pubchem assays: 746 ]
Sequence of Mitogen-activated protein kinase 10 (P53779 whole entry): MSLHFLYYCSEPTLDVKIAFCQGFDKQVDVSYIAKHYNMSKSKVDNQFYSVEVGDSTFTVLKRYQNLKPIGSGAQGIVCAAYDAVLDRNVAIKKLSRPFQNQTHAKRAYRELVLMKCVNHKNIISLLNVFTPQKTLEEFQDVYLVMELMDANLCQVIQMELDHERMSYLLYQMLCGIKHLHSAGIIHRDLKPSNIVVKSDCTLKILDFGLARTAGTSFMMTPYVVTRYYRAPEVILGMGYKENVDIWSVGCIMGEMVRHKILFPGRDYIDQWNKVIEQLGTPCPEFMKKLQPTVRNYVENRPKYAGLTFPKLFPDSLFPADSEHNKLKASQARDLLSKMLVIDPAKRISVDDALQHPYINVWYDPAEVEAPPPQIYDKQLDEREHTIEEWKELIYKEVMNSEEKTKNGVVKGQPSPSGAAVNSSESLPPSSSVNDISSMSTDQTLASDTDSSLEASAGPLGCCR

Albumin = Albumin (Bos taurus, UniProt P02769); experiment: Counterscreen for inhibitors of T-cell receptor (TCR)-CD3 interaction: Fluorescence-based biochemical high throughput dose response assay to identify inhibitors of T-cell receptor (TCR)-CD3 interaction using a TAMRA-labeled BSA probe.; format: functional
Sequence of Albumin (P02769 whole entry, the tested form may be a part): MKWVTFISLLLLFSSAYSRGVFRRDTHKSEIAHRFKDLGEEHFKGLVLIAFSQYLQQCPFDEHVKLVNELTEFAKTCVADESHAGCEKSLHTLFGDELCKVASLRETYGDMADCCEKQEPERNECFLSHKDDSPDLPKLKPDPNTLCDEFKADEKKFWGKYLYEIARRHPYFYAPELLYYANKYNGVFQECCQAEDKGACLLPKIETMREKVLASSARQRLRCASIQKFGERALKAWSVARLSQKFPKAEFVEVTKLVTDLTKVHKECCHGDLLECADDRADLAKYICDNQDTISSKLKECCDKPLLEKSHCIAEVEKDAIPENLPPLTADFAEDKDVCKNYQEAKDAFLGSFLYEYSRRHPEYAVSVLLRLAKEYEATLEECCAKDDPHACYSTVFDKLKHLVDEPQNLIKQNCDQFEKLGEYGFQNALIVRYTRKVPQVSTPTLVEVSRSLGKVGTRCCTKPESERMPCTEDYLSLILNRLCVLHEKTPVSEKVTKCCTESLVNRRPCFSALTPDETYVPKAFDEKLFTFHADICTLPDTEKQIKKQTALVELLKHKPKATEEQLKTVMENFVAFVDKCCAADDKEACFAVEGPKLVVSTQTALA

[9] = molecular target: T3, Oxysterols receptor LXR-beta (Homo sapiens, UniProt P55055); experiment: LXR agonists, Gal4 luciferase reporter, dose response, counter-screen for ssDAF-12 agonist project, cell-based, luminescence, HEK293, S. stercoralis campaign (AID 720737); format: functional; details: read-out: IC50 (the source's name)
T3 sequence (P55055 whole entry): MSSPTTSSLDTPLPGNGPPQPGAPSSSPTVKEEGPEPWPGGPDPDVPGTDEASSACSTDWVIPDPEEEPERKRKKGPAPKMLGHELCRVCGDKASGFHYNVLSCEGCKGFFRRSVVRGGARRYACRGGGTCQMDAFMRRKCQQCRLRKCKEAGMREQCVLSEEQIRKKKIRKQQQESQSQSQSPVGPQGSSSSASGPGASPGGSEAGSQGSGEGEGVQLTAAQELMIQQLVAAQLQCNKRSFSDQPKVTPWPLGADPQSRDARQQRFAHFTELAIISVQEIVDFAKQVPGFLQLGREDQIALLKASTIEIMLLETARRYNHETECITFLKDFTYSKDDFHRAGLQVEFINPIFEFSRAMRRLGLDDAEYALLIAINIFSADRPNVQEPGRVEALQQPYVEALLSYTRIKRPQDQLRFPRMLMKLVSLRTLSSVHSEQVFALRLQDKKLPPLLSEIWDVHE

[10] = Luminescence-based cell-based high throughput dose response assay to identify activators of the DAF-12 from the parasite S. stercoralis (ssDAF-12).; format: functional
[11] = blockers of HIV-1 ZM109 envelope-driven cell-cell fusion – HeLa effector, CEM target cells, luciferase, cherry-pick, dose response (AID 652058); format: functional, cell-based;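 also: luciferase signal from HIV-1 Env mediated cell-cell fusion of effector and target cells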
[12] = blockers of HIV-1 envelope-mediated cell-cell fusion – cherry-pick, dose response (AID 652057); format: functional, cell-based
[13] = HIV-1 AD8 envelope cell-cell fusion blockers – cherry-pick, dose response (AID 652062); format: functional, cell-based;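 also: luciferase signal from cell-cell fusion driven by HIV-1 clade B AD8 Env; potency is for inhibitors of fusion seen as a drop in luminescence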
[14] = molecular target: T4, Rac GTPase-activating protein 1 (Homo sapiens, UniProt Q9H0H5); experiment: blockers of MgcRacGAP-driven Rac1 GTP hydrolysis – biochemical, ADP Hunter fluorescence, primary and confirmatory, confirmation (AID 624330); format: functional
T4 sequence (Q9H0H5 whole entry): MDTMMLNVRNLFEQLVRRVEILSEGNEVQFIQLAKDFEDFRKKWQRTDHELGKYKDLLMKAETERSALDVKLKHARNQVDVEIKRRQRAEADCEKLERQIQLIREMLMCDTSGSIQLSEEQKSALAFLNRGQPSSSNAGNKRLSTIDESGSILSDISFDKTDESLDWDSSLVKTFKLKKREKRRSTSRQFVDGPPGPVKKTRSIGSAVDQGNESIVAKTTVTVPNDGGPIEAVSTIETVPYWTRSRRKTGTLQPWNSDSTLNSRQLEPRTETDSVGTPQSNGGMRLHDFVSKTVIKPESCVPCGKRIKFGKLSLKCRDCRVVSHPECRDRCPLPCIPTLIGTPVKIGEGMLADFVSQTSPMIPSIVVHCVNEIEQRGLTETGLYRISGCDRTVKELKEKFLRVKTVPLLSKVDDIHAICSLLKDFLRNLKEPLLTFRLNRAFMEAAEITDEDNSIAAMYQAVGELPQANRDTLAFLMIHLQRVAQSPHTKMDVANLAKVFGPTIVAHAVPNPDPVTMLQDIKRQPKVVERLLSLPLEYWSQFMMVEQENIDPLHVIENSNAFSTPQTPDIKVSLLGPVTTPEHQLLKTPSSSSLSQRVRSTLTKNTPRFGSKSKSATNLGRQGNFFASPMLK

## CC(NC1=NS(=O)(=O)c2ccccc21)C(=O)NCCCc1ccccc1 (stereo unspecified)
[1]
  AC50: 11.4 µM (active)

## COc1ccc(/C=N/CC2COc3ccccc3O2)cc1OC (stereo unspecified)
[2]
  IC50: 18.9 µM (inactive)
Cells [3]
  EC50: > 29.9 µM (inactive)
[4]
  EC50: 1.44 µM (active)
Cells [5]
  IC50: > 29.9 µM (inactive)

## CCC(CCC(=O)Nc1cccc(C(=O)O)c1)C(=O)O (stereo unspecified)
fMet-Leu-Phe receptor
  Ki: > 66.7 µM (inactive)

## c1ccc(-c2ccc(C3=Nn4c(Cn5nnc6ccccc65)nnc4SC3)cc2)cc1
[6]
  CC50: > 40 µM (active)
[7]
  IC50: > 20 µM (inactive)

## COC(=O)C1=C(C)N(Cc2ccc(Br)cc2)C(=S)NC1c1cccc(Br)c1 (stereo unspecified)
HeLa
  AC50: 38.1 µM (active)

## COCCN1Cc2cccc(C(=O)NCc3ccc4c(c3)OCO4)c2C1=O
fMet-Leu-Phe receptor
  Ki: > 66.7 µM (inactive)
[8]
  IC50: > 31 µM (not active)

## Cc1ccc(S(=O)(=O)N2CCC(C(=O)NNC(=O)c3ccccc3O)CC2)cc1C
Albumin
  IC50: > 94.1 µM (inactive)

## CCNC1=NN=C(c2c[nH]c3ccccc23)CS1
[9]
  EC50: > 67.6 µM (inactive)
[10]
  IC50: > 67.6 µM (inactive)

## C#CCOC(=O)CCC(=O)NCCc1ccccc1
[2]
  IC50: 1.66 µM (active)
Cells [3]
  EC50: > 29.9 µM (inactive)
[4]
  EC50: 3.07 µM (active)
Cells [5]
  IC50: > 29.9 µM (inactive)

## C[C@H]1CN([C@@H](C)CO)C(=O)Cc2cc(NC(=O)Nc3ccccc3)ccc2O[C@H]1CN(C)S(=O)(=O)c1cccs1
[11]
  AC50: 1.55 µM (active)
[12]
  AC50: 1.36 µM (active)
[13]
  AC50: 8.52 µM (active)

## Cc1ccc(-c2cc(-c3ccccc3)no2)c(O)c1
[9]
  EC50: > 67.5 µM (inactive)
[10]
  IC50: > 67.5 µM (inactive)

## Cc1ccc(/C=N/Nc2ccc(Cl)c(C(=O)O)c2)s1
[9]
  EC50: > 67.6 µM (inactive)
[14]
  IC50: 80.5 µM (active)
[10]
  IC50: > 67.6 µM (inactive)
